Consider 5 molecules from US20240308987A1, “SMALL MOLECULE INHIBITOR AGAINST NASOPHARYNGEAL CARCINOMA, PREPARATION METHOD AND APPLICATION THEREOF” (SHENZHEN BAY LABORATORY, priority 2021, published 2024).

The structures appear in SMILES notation.

The test system of the assay is C666-1 cells. Description: C666-1 Cell Viability Assay (Resazurin cytotoxicity test). The format is cell-based. As to conditions: Homo sapiens, C6661, EB virus-positive C666-1 cells, 72 hours treatment, 100-0.78 micromole/L, read-out: Inhibitory Rate. Summed up: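 EBV-positive nasopharyngeal carcinoma C666-1 cells, 5×10^3 per well, were grown 24 h, then exposed to compound for 72 h at 37 °C (8-point two-fold dilutions, final 100–0.78 µM). Viability was read by resazurin reduction fluorescence after 3 h; EC50 came from the fitted inhibition curve.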
In general terms: The colour change of resazurin is a common sign of viable cells or microbes.
In the case of `COC(=O)c1cccc(N2CC(Oc3ccc(OCc4cccnc4)cc3)C2)c1-n1cccc1` [Example 24, methyl 3-(3-(4-(pyridin-3-ylmethoxy)phenoxy)azetidin-1-yl)-2-(1H-pyrrol-1-yl) benzoate], the EC50 is 1 to 10 µM. Regarding `COC(=O)c1cccc(N2CC(Oc3ccc(NC(=O)Nc4cccc(C(F)(F)F)c4)cc3)C2)c1-n1cccc1` [Example 10, methyl 2-(1H-pyrrol-1-yl)-3-(3-(4-(3-(3-(trifluoromethyl)phenyl)ureido)phenoxy)azetidin-1-yl) benzoate], the EC50 was in the range of 10 to 50 µM. Turning to `CNC(=O)c1cccc(N2CC(Oc3ccc(NC(=O)Nc4cccnc4)cc3)C2)c1-c1ccccc1` [Example 42c, N-methyl-6-(3-(4-(3-(pyridin-3-yl)ureido)phenoxy)azetidin-1-yl)-[1,1′-biphenyl]-2-carboxamide], the EC50 was less than 1 µM.

In the case of `O=C(Cc1ccc(OC2CN(c3cccc(C(=O)O)c3-n3cccc3)C2)cc1)Nc1ccccc1` [Example 35a, 3-(3-(4-(2-oxo-2-(phenylamino)ethyl)phenoxy)azetidin-1-yl)-2-(1H-pyrrol-1-yl) benzoic acid], the EC50 was greater than 50 µM. As for `CNC(=O)c1cccc(N2CC(Oc3ccc(CC(=O)Nc4cccnc4)cc3)C2)c1-c1ccccc1` [Example 40c, N-methyl-6-(3-(4-(2-oxo-2-(pyridin-3-ylamino)ethyl)phenoxy)azetidin-1-yl)-[1,1′-biphenyl]-2-carboxamide], the figure is 1 to 10 µM.
